# Tests used:
# human TRPV1 = molecular target: T1, human TRPV1 (Homo sapiens, UniProt Q8NER1); assay: Ca2+ signal in N2a cells transfected with human TRPV1 (capsaicin); assay type: cell-based; settings: 5 μM capsaicin stimulation
# T1 construct: expressed in transfected cells; host or cells: N2a cells
# Experimental: Compounds were tested for their effect on TRPV1, TRPV2, and TRPV3. Methods were similar to those described in Example 15. Briefly, N2a cells were transfected with human TRPV1, TRPV2, or TRPV3. eGFP-transfection was used as control. For specific stimulation of TRPV1, 5 μM capsaicin was used. For stimulation of TRPV2, hypotonicity (260 mosmol/L) was used, based on previous reports of TRPV2 being osmotically responsive. N2a cells were not responsive to hypotonicity, and neither were control-transfected cells. For TRPV3-expressing cells, camphor (20% of a commercially available stock solution) was used. […] Stimulation and control protocols were applied as for TRPA1-expressing N2a cells as detailed above in Example 15.
# TRPV2 = molecular target: T2, TRPV2 (Mus musculus, UniProt Q9WTR1); assay: Ca++ imaging in N2a cells over-expressing TRPV2; assay type: cell-based; settings: 5 μM, mouse isoform in N2a cells
# T2 construct: expressed in transfected cells; host or cells: N2a cells, eGFP co-transfected
# Excerpt: Mean±SEM is shown, ≥100 cells per condition. […] Plot generated from averaged peak ΔCa++ concentration of […] per data-point.
# [1] = Compound concentration in tissues/organs and plasma by LC-MS/MS after i.p. injection; assay type: in vivo, mouse; settings: 10 mg/kg i.p.; for compound concentration in liver and kidney / compound concentration in plasma / concentration at 1 h: 1 h; for concentration at 1 h: mouse, heart, brain, brainstem, trigeminal ganglion, skin, intraperitoneal
# Experimental: Mice were treated with 10 mg/kg i.p. of the respective inhibitor. Post-euthanasia harvested tissue was frozen in liquid nitrogen and stored at −80° C. for further analysis.
# Frozen tissue samples were partially thawed and cut into 1 mm slices, 5-15 mg tissue, 2-fold excess water (mass/vol.), 6-fold excess acetonitrile (16- . . . compounds) or methanol (GSK205) containing appropriate amount of internal standard, and 2.5 mm zirconia/silica bead (Biospec Products Inc.) were added to 500-μL polypropyl-ene (PP) conical tube, homogenized in a Fast-Prep apparatus (Thermo-Savant) at speed “4” for 20 sec at room temp, and centrifuged at 13,600 g for 5 min at room temp. Depending on the expected concentration range of the measured compound, the supernatant was diluted 1/4-1/20 (in Mobile phase A, see below) and placed in autosampler for LC-MS/MS analysis.
# The LC-MS/MS assay for 16- . . . compounds and GSK205 was developed on an Agilent 1200 series LC system interfaced with Applied Biosystems API 5500QTrap, a hybrid triple quadruple-linear trap MS/MS spectrometer.
# Analyst (version 1.6.1) software was used for mass parameters tuning, data acquisition, and quantification. LC column: 3×4 mm RP C18 (Phenomenex, AJ0-4287) was operated at 35° C. Mobile phase A: 0.1% formic acid, 2% acetonitrile, in LC/MS-grade water; mobile phase B: acetonitrile; flow rate: 1 mL/min, 1:1 MS/MS:waste split. Run time was 4 min. Diverter valve was used to send flow to MS/MS only between 1.2 and 2.5 min. The elution gradi-ent was: 0-0.5 min, 1% B; 0.5-1.2 min, 1-95% B; 1.2-1.5 min, 95% B; 1.5-1.6 min, 95-1% B. Autosampler was oper-ated at 4° C.; injection volume was kept at 10-50 μL. Electrospray ionization (ESI) source parameters were: positive ionization mode, curtain gas flow=30, ionization potential=5500 V, temperature=500° C., nebulizing gas 1 flow=30, nebulizing gas 2=30, declustering potential=20 V. 16- . . . compounds and GSK205 were individually infused as 100 nM solutions in 50% A/50% B at 10 μL/min flow rate and parameters optimized to provide maximal ion count for “parent” and collision-produced (“daughter”) MS/MS ions. Parent/daughter quantifier [qualifier] ions utilized: GSK205 (401.1/280[370]), 16-8 (400.1/279.1[91.1], 16-16 (387.1/280[105]), 16-18 (415.2/280[370], 16-19 (414.1/279.2[91.1]. Standard (analyte of interest)/internal standard pairs utilized: GSK205/16-16, 16-8/16-16, 16-18/GSK205, 16-19/16-8.
# Calibration samples (n=6) were prepared by adding pure standard of the measured compound to tissue homogenate (tissue+2-fold excess water, mass/vol) in the appropriate range needed for the particular dosing regime. Organs studied were analyzed alongside the study samples. The following are typical ranges used (the lower value representing also the LLOQ at 80% accuracy limit, all other calibrator levels at 85% accuracy limit): 0.38-6 nM (plasma), 6-100 nM (skin), 6-48 nM (heart), 7.5-120 nM (brain), 19-300 or 1500-24000 nM (liver), 56-900 or 1500-12000 nM (kidney), 500-8000 nM (fat). Peak integration, calibration, and quantification was performed within Analyst software. The response of the peak area standard/int. std. to nominal concentration was linear with r=0.999 or better.
# T2 sequence (Q9WTR1 whole entry, canonical isoform): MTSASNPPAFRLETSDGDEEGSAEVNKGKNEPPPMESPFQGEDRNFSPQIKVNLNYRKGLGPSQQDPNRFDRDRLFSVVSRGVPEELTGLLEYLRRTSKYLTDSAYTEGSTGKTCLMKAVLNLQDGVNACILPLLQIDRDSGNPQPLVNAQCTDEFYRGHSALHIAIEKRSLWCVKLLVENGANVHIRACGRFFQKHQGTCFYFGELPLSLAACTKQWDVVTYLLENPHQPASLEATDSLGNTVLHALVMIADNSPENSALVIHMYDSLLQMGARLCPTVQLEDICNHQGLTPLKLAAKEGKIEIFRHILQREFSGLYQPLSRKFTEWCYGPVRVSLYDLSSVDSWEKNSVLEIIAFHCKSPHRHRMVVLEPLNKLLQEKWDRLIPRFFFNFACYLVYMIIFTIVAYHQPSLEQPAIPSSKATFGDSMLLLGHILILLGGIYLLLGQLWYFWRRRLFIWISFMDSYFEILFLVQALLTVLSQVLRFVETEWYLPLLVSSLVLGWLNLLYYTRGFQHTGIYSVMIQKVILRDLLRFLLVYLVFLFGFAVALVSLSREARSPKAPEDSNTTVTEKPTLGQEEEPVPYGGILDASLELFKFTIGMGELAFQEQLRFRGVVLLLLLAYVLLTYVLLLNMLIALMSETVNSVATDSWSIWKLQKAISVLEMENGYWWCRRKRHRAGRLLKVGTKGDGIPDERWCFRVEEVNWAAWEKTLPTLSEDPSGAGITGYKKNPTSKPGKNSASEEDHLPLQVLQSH
# T1 sequence (Q8NER1 whole entry): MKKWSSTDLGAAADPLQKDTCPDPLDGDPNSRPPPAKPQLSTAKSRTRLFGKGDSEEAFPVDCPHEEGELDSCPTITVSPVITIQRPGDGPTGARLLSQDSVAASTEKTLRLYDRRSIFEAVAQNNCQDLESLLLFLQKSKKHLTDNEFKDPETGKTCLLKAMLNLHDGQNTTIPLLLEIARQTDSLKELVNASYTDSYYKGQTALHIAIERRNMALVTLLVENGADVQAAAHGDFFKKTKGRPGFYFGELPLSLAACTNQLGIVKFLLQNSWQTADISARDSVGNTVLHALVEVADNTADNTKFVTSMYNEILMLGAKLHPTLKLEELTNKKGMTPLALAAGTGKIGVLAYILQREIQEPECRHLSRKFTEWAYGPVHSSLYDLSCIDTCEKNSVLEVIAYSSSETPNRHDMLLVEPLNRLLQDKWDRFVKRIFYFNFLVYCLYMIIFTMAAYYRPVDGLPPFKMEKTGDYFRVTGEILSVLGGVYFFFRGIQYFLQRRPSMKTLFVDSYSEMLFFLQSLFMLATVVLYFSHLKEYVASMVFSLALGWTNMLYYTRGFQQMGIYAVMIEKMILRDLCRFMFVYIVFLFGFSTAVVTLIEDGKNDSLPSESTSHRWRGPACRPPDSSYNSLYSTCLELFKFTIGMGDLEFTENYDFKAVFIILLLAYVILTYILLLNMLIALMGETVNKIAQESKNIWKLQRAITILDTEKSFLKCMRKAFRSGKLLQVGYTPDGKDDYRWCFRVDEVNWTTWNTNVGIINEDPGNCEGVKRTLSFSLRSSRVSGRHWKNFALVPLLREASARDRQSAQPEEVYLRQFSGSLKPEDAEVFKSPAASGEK
Structure (SMILES),"effect on Ca2+ transience, TRPV1 (human TRPV1)",inhibition of TRPV2 (TRPV2),concentration in fat and pancreas after one hour [1],compound concentration in liver and kidney [1],compound concentration in plasma [1],concentration at 1 h [1] [nM],concentration at the 6 h time-point compared to the 1 h time-point ([1]; several organs),concentration at the 24 h time-point ([1]; several organs)
CN(CCc1ccc(Nc2nc(-c3ccccc3)cs2)cc1)Cc1ccccc1 [Compound 16-8],not affected,did not inhibit,above its IC50,micromolar/submicromolar,virtually undetectable,< 100,,
CCN(CCc1ccc(Nc2nc(-c3ccccc3)cs2)cc1)Cc1ccccc1 [Compound 16-19],not affected,did not inhibit,,micromolar/submicromolar,virtually undetectable,< 100,10-20 fold,lower than at the 6 h but higher than at the 1 h time-point

# Source: patent publication US11564911B2, “Small molecule dual-inhibitors of TRPV4 and TRPA1 for sanitizing and anesthetizing” (Duke University, priority 2016, dated 2023)
